Holding throughout (type): cell-based
Data set [1] has as its system Escherichia coli ATCC BAA-2523. Particulars: ATCC BAA-2523. The procedure, abridged:
(§1)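 Broth microdilution MIC per CLSI in MH broth, compounds 2-fold diluted to final 64–0.03 mg/L. Inoculum (2-4) × 10^5 CFU/mL final, from 0.5 McFarland suspensions of 18-24 h colonies. Plates sealed and incubated 35-37°C for 16-20 h.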

For data set [2], the system named is Pseudomonas aeruginosa ATCC 27853. Particulars: ATCC 27853. The essentials: as §1
In data set [3] the test system is Acinetobacter baumannii NCTC 13304 (OXA-27). Conditions: NCTC 13304. The essentials: as §1
Data set [4] deals with Klebsiella pneumoniae KPN+19-15. Particulars: KPN+19-15. The essentials:
as §1

Data set [5] relates to Acinetobacter baumannii ABA19-1. Conditions: ABA19-1. The essentials:
as §1

For data set [6], the system named is Escherichia coli ATCC BAA-2340 (KPC). Particulars: ATCC BAA-2340. The procedure, abridged: as §1
For data set [7], the system named is Klebsiella pneumoniae ATCC BAA-1705 (KPC). Particulars: ATCC BAA-1705. The procedure, abridged:
as §1

For data set [8], the system named is Pseudomonas aeruginosa PAE19-3. Particulars: PAE19-3. The procedure, abridged:
as §1

A short description of data set [9]: Nephrotoxicity assay: in vitro cytotoxicity of HK-2 cells by CCK-8 assay. Conditions: human, HK-2 cells (human renal), 72 h incubation with drug-containing medium. The procedure, abridged:
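HK-2 human renal cells in RPMI-1640 with 10% FBS were exposed to compounds at final 12.5–500 µg/mL for 72 h, then CCK-8 for 3 h and OD450 read. Viability was normalised to drug-free wells; IC50 came from logarithmic regression over three repeats, with polymyxin B as positive drug.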
In general terms: Tetrazolium assays rely on reduction of a dye to a coloured formazan, in cell work by metabolically active cells.

Converted amounts (≈) assume the structure as drawn. Bridge positions count the residues as written; N and C are the ends. Square brackets hold non-standard residues; d marks the D form. Peptide text beside a SMILES is read from it. * marks the point of attachment. Heptanoyl(6-Me) = CC(C)CCCCC(=O)*; Sulfomethyl = O=S(=O)(O)C*; Nonanoyl = CCCCCCCCC(=O)*; X1 = CC[C@H](C)CCCCC(=O)*; Heptanoyl = CCCCCCC(=O)*; Octanoyl = CCCCCCCC(=O)*; Orn = NCCC[C@H](N)C(=O)O; dDap = NC[C@@H](N)C(=O)O; Dab = NCC[C@H](N)C(=O)O; Dap = NC[C@H](N)C(=O)O

Broadly, the MIC is the lowest concentration found to suppress growth. By IC50 is commonly meant the concentration that gives 50% inhibition. The low end stands for inhibition by little substance, the high end for a need for much substance.

With `CCCCCCC(=O)N[C@@H](CCN)C(=O)N[C@H](C(=O)N[C@H](CN)C(=O)N[C@H]1CCNC(=O)[C@H]([C@@H](C)O)NC(=O)[C@H](CCN)NC(=O)[C@H](CCN)NC(=O)[C@H]([C@@H](C)O)NC(=O)[C@@H](Cc2ccccc2)NC(=O)[C@H](CCN)NC1=O)[C@@H](C)O` [Compound 4, Heptanoyl-Dab-Thr-D-Dap-ring(4-10)[Dab-Dab-D-Phe-Thr-Dab-Dab-Thr]] (Heptanoyl-[Dab]T[dDap][Dab][Dab][dF]T[Dab][Dab]T; lactam 4-C), the minimum inhibitory concentration (MIC) in [1], in data set [2], in data set [3], in [4], in data set [5] and in data set [6] was 0.03 µg/mL (≈ 0.0261 µM) throughout. Further, the results for the MIC in data set [7] and in data set [8] were 0.03 µg/mL (≈ 0.0261 µM) and 0.25 µg/mL (≈ 0.218 µM), respectively. The IC50 at 72 h in [9] is above 500 µg/mL.
As for `CC[C@H](C)CCCCC(=O)N[C@@H](CCN)C(=O)N[C@H](C(=O)N[C@H](CN)C(=O)N[C@H]1CCNC(=O)[C@H]([C@@H](C)O)NC(=O)[C@H](CCN)NC(=O)[C@H](CCN)NC(=O)[C@H]([C@@H](C)O)NC(=O)[C@@H](Cc2ccccc2)NC(=O)[C@H](CCN)NC1=O)[C@@H](C)O` [Compound 1, (S)-6-methyloctanoyl-Dab-Thr-D-Dap-ring(4-10)[Dab-Dab-D-Phe-Thr-Dab-Dab-Thr]] (X1-[Dab]T[dDap][Dab][Dab][dF]T[Dab][Dab]T; lactam 4-C), the MIC in [1] is at most 0.03 µg/mL; in [2] it was 0.03 µg/mL (≈ 0.0255 µM); in data set [3] it was at most 0.03 µg/mL; in data set [4] it was at most 0.03 µg/mL; in data set [5], at most 0.03 µg/mL; in data set [6] it was at most 0.03 µg/mL. The MIC was at most 0.03 µg/mL in [7] and 0.125 µg/mL (≈ 0.106 µM) in data set [8]. In data set [9], the IC50 at 72 h was above 500 µg/mL.
Take `CC[C@H](C)CCCCC(=O)N[C@@H](CCN)C(=O)N[C@H](C(=O)N[C@@H](CCCN)C(=O)N[C@H]1CCNC(=O)[C@H]([C@@H](C)O)NC(=O)[C@H](CCN)NC(=O)[C@H](CCN)NC(=O)[C@H](CC(C)C)NC(=O)[C@@H](Cc2ccccc2)NC(=O)[C@H](CCN)NC1=O)[C@@H](C)O` [Compound 46, (S)-6-methyloctanoyl-Dab-Thr-Orn-ring(4-10)[Dab-Dab-D-Phe-Leu-Dab-Dab-Thr]] (X1-[Dab]T[Orn][Dab][Dab][dF]L[Dab][Dab]T; lactam 4-C): the minimal inhibitory concentration (MIC) in data set [1] is 0.03 µg/mL (≈ 0.0246 µM); in [2], at most 0.03 µg/mL; in [3] it was 0.06 µg/mL (≈ 0.0493 µM); in [4] it was at most 0.03 µg/mL; in [5], 0.125 µg/mL (≈ 0.103 µM); in data set [6], 0.03 µg/mL (≈ 0.0246 µM). For the same compound, the MIC in data set [7] is on record as at most 0.03 µg/mL; in data set [8] it was 0.25 µg/mL (≈ 0.205 µM). Also, the half-inhibitory concentration (IC50) at 72 h in [9] worked out at 287 ± 10.7 µg/mL (≈ 236 µM).
`CC[C@H](C)CCCCC(=O)N[C@@H](CCN)C(=O)N[C@H](C(=O)N[C@H](CO)C(=O)N[C@H]1CCNC(=O)[C@H]([C@@H](C)O)NC(=O)[C@H](CN)NC(=O)[C@H](CCN)NC(=O)[C@H]([C@@H](C)O)NC(=O)[C@@H](Cc2ccccc2)NC(=O)[C@H](CCN)NC1=O)[C@@H](C)O` [Compound 81, (S)-6-methyloctanoyl-Dab-Thr-D-Ser-ring(4-10)[Dab-Dab-D-Phe-Thr-Dab-Dap-Thr]] (X1-[Dab]T[dS][Dab][Dab][dF]T[Dab][Dap]T; lactam 4-C): the MIC in [1] is on record as 0.03 µg/mL (≈ 0.0258 µM); in data set [2], above 64 µg/mL; in data set [3] it was at most 0.03 µg/mL; in data set [4], 0.5 µg/mL (≈ 0.429 µM); in [5] it was 0.06 µg/mL (≈ 0.0515 µM); in [6], 0.03 µg/mL (≈ 0.0258 µM). The minimum inhibitory concentration (MIC) stood at 0.25 µg/mL (≈ 0.215 µM) in data set [7] and 64 µg/mL (≈ 55 µM) in data set [8]. For the same compound, in data set [9], the IC50 at 72 h was above 500 µg/mL.
In the case of `CCCCCCCCC(=O)N[C@@H](CCN)C(=O)N[C@H](C(=O)N[C@@H](CCN)C(=O)N[C@H]1CCNC(=O)[C@H]([C@@H](C)O)NC(=O)[C@H](CCN)NC(=O)[C@H](CCN)NC(=O)[C@H]([C@@H](C)O)NC(=O)[C@@H](Cc2ccccc2)NC(=O)[C@H](CCN)NC1=O)[C@@H](C)O` [Compound 20, Nonanoyl-Dab-Thr-Dab-ring(4-10)[Dab-Dab-D-Phe-Thr-Dab-Dab-Thr]] (Nonanoyl-[Dab]T[Dab][Dab][Dab][dF]T[Dab][Dab]T; lactam 4-C), the MIC was 0.06 µg/mL (≈ 0.0504 µM) in data set [1]; 2 µg/mL (≈ 1.68 µM) in data set [2]; 0.25 µg/mL (≈ 0.21 µM) in data set [3]; 0.06 µg/mL (≈ 0.0504 µM) in data set [4]; 0.5 µg/mL (≈ 0.42 µM) in data set [5]; 0.06 µg/mL (≈ 0.0504 µM) in [6]. Moreover, the MIC in data set [7] was determined as 0.06 µg/mL (≈ 0.0504 µM); in data set [8], 2 µg/mL (≈ 1.68 µM). In addition, the IC50 at 72 h in data set [9] came out at 280 ± 10.3 µg/mL (≈ 235 µM).
As to `CCCCCCCC(=O)N[C@@H](CCN)C(=O)N[C@H](C(=O)N[C@H](CO)C(=O)N[C@H]1CCNC(=O)[C@H]([C@@H](C)O)NC(=O)[C@H](CN)NC(=O)[C@H](CCN)NC(=O)[C@H]([C@@H](C)O)NC(=O)[C@@H](Cc2ccccc2)NC(=O)[C@H](CCN)NC1=O)[C@@H](C)O` [Compound 83, Octanoyl-Dab-Thr-D-Ser-ring(4-10)[Dab-Dab-D-Phe-Thr-Dab-Dap-Thr]] (Octanoyl-[Dab]T[dS][Dab][Dab][dF]T[Dab][Dap]T; lactam 4-C), the MIC in data set [1] is 0.06 µg/mL (≈ 0.0522 µM); in data set [2] it was above 64 µg/mL; in data set [3] it was at most 0.03 µg/mL; in [4] it was 0.5 µg/mL (≈ 0.435 µM); in data set [5], 0.06 µg/mL (≈ 0.0522 µM); in [6] it was 0.06 µg/mL (≈ 0.0522 µM). Also, the results for the MIC in [7] and in data set [8] were 0.25 µg/mL (≈ 0.217 µM) and 64 µg/mL (≈ 55.6 µM), respectively. The compound further gave an IC50 at 72 h in [9] above 500 µg/mL.
On to `CC(C)CCCCC(=O)N[C@@H](CCN)C(=O)N[C@H](C(=O)N[C@@H](CN)C(=O)N[C@H]1CCNC(=O)[C@H]([C@@H](C)O)NC(=O)[C@H](CCN)NC(=O)[C@H](CCN)NC(=O)[C@H]([C@@H](C)OCS(=O)(=O)O)NC(=O)[C@@H](Cc2ccccc2)NC(=O)[C@H](CCN)NC1=O)[C@@H](C)O` [Compound 114, 6-methylheptanoyl-Dab-Thr-Dap-ring(4-10)[Dab-Dab-D-Phe-Thr(CH2SO3H)-Dab-Dab-Thr]] ({Heptanoyl(6-Me)}-[Dab]T[Dap][Dab][Dab][dF]T(Sulfomethyl)[Dab][Dab]T; lactam 4-C), for which the MIC in [1] was 0.03 µg/mL (≈ 0.0239 µM); in data set [2], 0.25 µg/mL (≈ 0.199 µM); in [3], 0.06 µg/mL (≈ 0.0477 µM); in data set [4] it was 0.125 µg/mL (≈ 0.0994 µM); in [5] it was 0.06 µg/mL (≈ 0.0477 µM); in data set [6] it was 0.03 µg/mL (≈ 0.0239 µM). The values for the minimum inhibitory concentration (MIC) in data set [7] and in data set [8] were 0.125 µg/mL (≈ 0.0994 µM) and 0.25 µg/mL (≈ 0.199 µM), respectively. In data set [9], this compound displayed a 50% inhibitory concentration (IC50) at 72 h above 500 µg/mL.
For the compound `CC[C@H](C)CCCCC(=O)N[C@@H](CCN)C(=O)N[C@H](C(=O)N[C@H](CO)C(=O)N[C@H]1CCNC(=O)[C@H]([C@@H](C)O)NC(=O)[C@H](CCN)NC(=O)[C@H](CCCN)NC(=O)[C@H]([C@@H](C)O)NC(=O)[C@@H](Cc2ccccc2)NC(=O)[C@H](CCN)NC1=O)[C@@H](C)O` [Compound 76, (S)-6-methyloctanoyl-Dab-Thr-D-Ser-ring(4-10)[Dab-Dab-D-Phe-Thr-Orn-Dab-Thr]] (X1-[Dab]T[dS][Dab][Dab][dF]T[Orn][Dab]T; lactam 4-C), the minimum inhibitory concentration (MIC) in data set [1] is recorded as at most 0.03 µg/mL; in data set [2], above 64 µg/mL; in data set [3], at most 0.03 µg/mL; in data set [4] it was 0.5 µg/mL (≈ 0.419 µM); in data set [5] it was 0.06 µg/mL (≈ 0.0503 µM); in data set [6] it was at most 0.03 µg/mL. The minimum inhibitory concentration (MIC) in [7] was 0.25 µg/mL (≈ 0.21 µM); in data set [8], 64 µg/mL (≈ 53.7 µM). For the same compound, in data set [9], the half-maximal inhibitory concentration (IC50) at 72 h is above 500 µg/mL.
For the compound `CCCCCCC(=O)N[C@@H](CCCN)C(=O)N[C@H](C(=O)N[C@H](CO)C(=O)N[C@H]1CCNC(=O)[C@H]([C@@H](C)O)NC(=O)[C@H](CCN)NC(=O)[C@H](CCN)NC(=O)[C@H]([C@@H](C)O)NC(=O)[C@@H](Cc2ccccc2)NC(=O)[C@H](CCN)NC1=O)[C@@H](C)O` [Compound 59, Heptanoyl-Orn-Thr-D-Ser-ring(4-10)[Dab-Dab-D-Phe-Thr-Dab-Dab-Thr]] (Heptanoyl-[Orn]T[dS][Dab][Dab][dF]T[Dab][Dab]T; lactam 4-C), the minimum inhibitory concentration (MIC) came to 0.25 µg/mL (≈ 0.215 µM) in data set [1]; 64 µg/mL (≈ 55 µM) in data set [2]; 0.25 µg/mL (≈ 0.215 µM) in data set [3]; 0.5 µg/mL (≈ 0.429 µM) in data set [4]; 0.25 µg/mL (≈ 0.215 µM) in data set [5]; 0.25 µg/mL (≈ 0.215 µM) in data set [6]. For the same compound, the MIC was found to be 0.25 µg/mL (≈ 0.215 µM) in data set [7] and 8 µg/mL (≈ 6.87 µM) in [8]. For the same compound, the IC50 at 72 h in [9] was above 500 µg/mL.
